Source: PubChem BioAssay AID1645861 (Buhrlage Lab, Dana-Farber Cancer Institute and Novartis …, 2021)
Calls of active or inactive are those of the source.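 The calls were made as follows: active = compounds whose peak USP7 inhibition across the dose series reached 30% or more; inactive = the rest.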

Target: Ubiquitin carboxyl-terminal hydrolase 7 (Homo sapiens) (UniProt Q93009)
Assay: Ubiquitin-specific protease 7 DUB inhibitors, concentration-effect, biochemical, validation of primary hits (AID 1645861)
Conditions: purified USP7, Ub-rhodamine cleavage fluorescence, 60 min

Sequence of Ubiquitin carboxyl-terminal hydrolase 7 (Homo sapiens) (Q93009 whole entry, looked up): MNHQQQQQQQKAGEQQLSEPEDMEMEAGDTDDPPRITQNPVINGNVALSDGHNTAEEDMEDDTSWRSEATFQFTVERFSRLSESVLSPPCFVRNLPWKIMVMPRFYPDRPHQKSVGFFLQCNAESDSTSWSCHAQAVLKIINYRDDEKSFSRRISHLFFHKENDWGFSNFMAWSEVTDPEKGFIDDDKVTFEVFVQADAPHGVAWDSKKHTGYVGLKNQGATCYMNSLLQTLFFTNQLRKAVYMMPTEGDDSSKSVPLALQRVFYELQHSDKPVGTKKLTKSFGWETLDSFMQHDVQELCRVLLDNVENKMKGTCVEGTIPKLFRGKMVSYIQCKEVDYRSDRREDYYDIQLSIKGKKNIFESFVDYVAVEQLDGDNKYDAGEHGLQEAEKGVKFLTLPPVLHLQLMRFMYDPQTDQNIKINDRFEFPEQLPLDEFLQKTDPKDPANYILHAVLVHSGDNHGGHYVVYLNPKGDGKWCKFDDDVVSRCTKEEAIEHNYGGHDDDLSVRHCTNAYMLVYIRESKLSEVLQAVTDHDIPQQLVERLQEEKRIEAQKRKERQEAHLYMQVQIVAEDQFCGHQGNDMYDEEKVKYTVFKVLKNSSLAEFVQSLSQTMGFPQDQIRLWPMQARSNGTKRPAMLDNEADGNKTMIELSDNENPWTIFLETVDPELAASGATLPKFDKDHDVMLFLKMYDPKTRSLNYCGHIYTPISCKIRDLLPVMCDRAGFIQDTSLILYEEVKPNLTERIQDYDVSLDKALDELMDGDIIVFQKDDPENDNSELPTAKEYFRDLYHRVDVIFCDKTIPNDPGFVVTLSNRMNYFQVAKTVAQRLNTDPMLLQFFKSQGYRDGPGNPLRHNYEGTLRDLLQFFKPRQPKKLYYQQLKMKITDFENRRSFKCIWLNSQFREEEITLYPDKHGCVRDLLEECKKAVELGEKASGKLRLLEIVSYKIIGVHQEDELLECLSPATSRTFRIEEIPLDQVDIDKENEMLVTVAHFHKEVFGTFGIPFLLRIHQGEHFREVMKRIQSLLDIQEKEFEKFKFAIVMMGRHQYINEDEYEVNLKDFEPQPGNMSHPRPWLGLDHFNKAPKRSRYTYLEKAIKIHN

`O=c1[nH]c(C2CCN(S(=O)(=O)c3ccc(S(=O)(=O)NC4CCCCC4)cc3)CC2)nc2c1nnn2Cc1c(F)cccc1Cl` was tested, and the IC50 was > 50 µM (inactive).

`CN(C)[C@H]1C(=O)C(C(N)=O)=C(O)C2(O)C(=O)C3=C(O)c4c(O)cccc4C(C)(O)C3C(O)C12` (stereo partly specified) gave an IC50 of 34.1 µM.

`Cc1cccc2nc(CSc3nc4ccc([N+](=O)[O-])cc4[nH]3)cn12` was tested, and the IC50 was > 50 µM (inactive).

In the case of `COc1cn(-c2ccc(F)cc2)nc1C(=O)Nc1ccc(Cl)cc1Cl`, the IC50 is reported as > 50 µM (inactive).

For `Cc1nc(C(=O)NC2(O)C(=O)c3ccccc3C2=O)cs1`, the IC50 was > 50 µM (inactive).

`O=c1ccc(-c2cc3ccccc3o2)cn1Cc1ccccc1-c1ccccc1` gave an IC50 of 31.4 µM.

`Cc1ccc(NC(=O)Cc2nnc3cc(-c4nc(C)no4)ccn23)cc1` gave an IC50 of 45.4 µM.

Compound `CC(=O)NS(=O)(=O)c1ccc(NC(=O)/C=C/c2cn(-c3ccccc3)nc2-c2ccccc2)cc1` has an IC50 of 36.4 µM.

In the case of `CC(C)Cc1ccc(-c2cc(-c3ccc(C(F)(F)F)cc3)c(C#N)c(=O)[nH]2)cc1`, the IC50 is reported as > 50 µM (inactive).

In the case of `COc1cc(OC)cc(N2C(=O)N(CC(=O)c3ccc(Br)cc3)c3ccccc3S2(=O)=O)c1`, the IC50 is reported as > 50 µM (inactive).

In the case of `Cc1cccc(Cl)c1NC(=O)Nc1ccc(NC(=O)c2ccccc2O)cc1`, the IC50 is reported as > 50 µM (inactive).

`Cc1ccc(NC(=O)Cn2cc(C(=O)c3ccccc3)c(=O)c3cc(C)ccc32)cc1` was tested, and the IC50 was > 50 µM (inactive).

`O=C(Nc1ccccc1)[C@@H]1[C@@H]2C(=O)N(c3ccc([N+](=O)[O-])cc3)C(=O)[C@@H]2[C@H]2c3ccccc3C=CN12` was tested, and the IC50 was > 50 µM (inactive).

In the case of `CCCn1cc(C(=O)N2CCC3(CC2)CC2(CO3)Nc3ccccc3-n3cccc32)c(C)n1` (stereo unspecified), the IC50 is reported as > 50 µM (inactive).

For `COC1=C(C2=C(OC)C(=O)c3cc4c(c(O)c3C2=O)C(=O)OC(C)C4)C(=O)c2c(cc3c(c2O)C(=O)OC(C)C3)C1=O` (stereo unspecified), the IC50 was 44.7 µM.

With `Cc1ccc2[nH]c(=O)c(-c3nc4ccccn4c3NCc3ccccc3)cc2c1` the IC50 was > 50 µM (inactive).

For `COc1cc2c(cc1OC)-c1cc(Nc3ccc(Br)cc3)nc(=O)n1CC2`, the IC50 was > 50 µM (inactive).

For `O=C(c1cnc2[nH][nH]c(=O)c2c1)c1cc(Cl)cc(Cl)c1O`, the IC50 was 15.1 µM.

In the case of `COc1cc(-c2ccccc2)c(O)c(O)c1-c1ccccc1`, the IC50 is reported as 22.1 µM.

For `COc1ccc(Sc2nc3ccccc3n3cnnc23)cc1`, the IC50 was > 50 µM (inactive).

With `COc1cc2cc3c(c(O)c2c(O)c1-c1c(OC)cc2cc4c(c(O)c2c1O)C(=O)OC1CC(C)OC41)C(=O)OC1CC(C)OC31` (stereo unspecified) the IC50 was > 50 µM (inactive).

With `COc1ccccc1NC(=O)c1nc(-c2cn(-c3cccc(F)c3)nn2)no1` the IC50 was > 50 µM (inactive).

In the case of `CCOc1ccc(NC(=O)Cn2c(=O)n(CCCCCC(=O)NCc3ccc(F)cc3)c(=O)c3sccc32)cc1`, the IC50 is reported as > 50 µM (inactive).

`COc1ccc(S(=O)(=O)N2CCc3ccccc32)cc1C(=O)Nc1ccc2[nH]c(=O)[nH]c2c1` was tested, and the IC50 was > 50 µM (inactive).

For `COC(=O)C1=CC(OC)=C(Cl)C(=O)C12OC(=O)c1c(O)cc(C)cc1O2` (stereo unspecified), the IC50 was > 50 µM (inactive).

`Cn1nc(C(=O)N2CCC(c3ccccc3)C2)c2c1-c1ccsc1CC2` (stereo unspecified) was tested, and the IC50 was > 50 µM (inactive).

`O=C(CCn1c(=O)c2ccccc2n(Cc2ccc(F)cc2Cl)c1=O)NCc1ccco1` was tested, and the IC50 was > 50 µM (inactive).

In the case of `O=C(NCCc1nc2ccccc2n1Cc1ccccc1F)c1ccc(Cl)cc1`, the IC50 is reported as > 50 µM (inactive).

With `Cc1cc(OCC(=O)Nc2ccccc2C(=O)Nc2ccccc2)ccc1Cl` the IC50 was > 50 µM (inactive).

In the case of `O=C(Nc1ccc(F)cc1)Nc1ccccc1OCc1cc(=O)n2ccccc2n1`, the IC50 is reported as > 50 µM (inactive).

In the case of `Oc1cccc2c(-c3ccc(O)c4c(O)cccc34)ccc(O)c12`, the IC50 is reported as > 50 µM (inactive).

In the case of `CCOc1ccc(-c2nnc(-c3cnc4onc(C5CCCC5)c4c3)o2)cc1`, the IC50 is reported as > 50 µM (inactive).

For `O=S(=O)(Nc1ccc(Oc2ncnc3cc(Cl)ccc23)nc1)c1ccc(S(=O)(=O)c2ccccc2)s1`, the IC50 was 49.6 µM.

`Cc1nn(-c2ccccc2)c2c1N=C1C(Cl)=CC(Cl)=CN1C21C(=O)Nc2ccccc21` (stereo unspecified) gave an IC50 of 17.4 µM.

`COc1ccc(NC(=O)Cn2cc(C(=O)c3ccc(Cl)cc3)c(=O)c3cc(F)ccc32)cc1` gave an IC50 of 47 µM.

`O=C(CCCn1c(=O)c2sccc2n(CC(=O)NCCC2=CCCCC2)c1=O)NCc1ccc2c(c1)OCO2` was tested, and the IC50 was > 50 µM (inactive).

`COc1ccccc1CNC(=O)CCCCn1c(=O)c2ccccc2n(Cc2ccc(C)cc2)c1=O` was tested, and the IC50 was > 50 µM (inactive).

For `CCC(=O)N1c2ccccc2NC2=C(C(=O)CC(c3ccccc3OCc3ccccc3)C2)C1c1ccccc1` (stereo unspecified), the IC50 was > 50 µM (inactive).

For `CCC(=O)Nc1cccnc1-c1ccc(C(=O)Nc2ccc3c(c2)OCO3)cc1`, the IC50 was > 50 µM (inactive).

`O=C(Cn1c(=O)n(-c2ccc(CC(=O)NC3CCCC3)cc2)c(=O)c2ccccc21)Nc1ccccc1[N+](=O)[O-]` was tested, and the IC50 was > 50 µM (inactive).

In the case of `O=C(Nc1ccccc1Cc1ccccc1)c1nc2n(n1)-c1ccccc1S(=O)(=O)N2`, the IC50 is reported as > 50 µM (inactive).

With `CC(C)c1ccc(NC(=O)COC(=O)c2ccc(NS(=O)(=O)c3ccc4c(c3)OCCO4)cc2)cc1` the IC50 was > 50 µM (inactive).

`Cc1cccc(-n2ccnc(SCC(=O)Nc3ccc(Cl)cc3F)c2=O)c1` was tested, and the IC50 was > 50 µM (inactive).

In the case of `O=C(Cn1c(=O)c2ccccc2n(CC(=O)Nc2cccc(F)c2)c1=O)NCCc1ccccc1`, the IC50 is reported as > 50 µM (inactive).

`CSCCC(NC(=O)c1ccccc1)c1nc2ccccc2n1CC(=O)Nc1ccccc1` (stereo unspecified) was tested, and the IC50 was > 50 µM (inactive).

`Cc1sc2ccn(C)c(=O)c2c1C(=O)NC1CCCC1` was tested, and the IC50 was > 50 µM (inactive).

Compound `CN(C)[C@@H]1C(=O)C(C(N)=O)=C(O)[C@@]2(O)C(=O)C3=C(O)c4c(O)cccc4[C@@](C)(O)C3[C@H](O)[C@@H]12` (stereo partly specified) has an IC50 of 6.37 µM.

For `COc1ccc(CCC(=O)Nc2nnc(C3CC(=O)N(c4ccc(C)cc4)C3)s2)cc1` (stereo unspecified), the IC50 was > 50 µM (inactive).

For `CC(=O)Nc1ccc(NC(=O)c2ccc3c(c2)CC(c2ccccc2)OC3=O)cc1` (stereo unspecified), the IC50 was > 50 µM (inactive).

With `Nc1ccc(C(=O)OCC(=O)NC2CCCc3ccccc32)cc1[N+](=O)[O-]` (stereo unspecified) the IC50 was > 50 µM (inactive).

For `Cc1ccc(-n2cc(C(=O)NCCCc3ccccc3)nn2)cc1`, the IC50 was > 50 µM (inactive).

`Cc1sc(NC(=O)Cn2nnc3ccccc32)nc1-c1ccc2c(c1)CCN2C(=O)c1ccccc1F` was tested, and the IC50 was > 50 µM (inactive).

`CCOC(=O)c1cc2c(ccn2-c2ccc(F)cc2)n1CC(=O)Nc1ccc2c(c1)OCCO2` was tested, and the IC50 was > 50 µM (inactive).

`COc1cccc(NC(=O)Cn2cc(C(=O)c3ccc(C)cc3)c(=O)c3cc(Cl)ccc32)c1` was tested, and the IC50 was > 50 µM (inactive).

In the case of `Cc1noc(-c2cc(=O)n(CC(=O)Nc3ccccc3Cl)c3ccccc23)n1`, the IC50 is reported as > 50 µM (inactive).

`O=C(Cn1c(=O)n(Cc2ccccc2)c(=O)c2ncccc21)NCc1ccccc1Cl` gave an IC50 of 43.6 µM.

`COc1ccccc1CNC(=O)CCCCn1c(=O)c2ccccc2n(CC(=O)Nc2ccc(C)cc2C)c1=O` was tested, and the IC50 was > 50 µM (inactive).

With `Cn1c(=O)c2ncnnc2n(C)c1=O` the IC50 was > 50 µM (inactive).

In the case of `O=C(COc1ccc(N2CC(C(=O)NCc3ccc4c(c3)OCO4)CC2=O)cc1)Nc1ccc(F)cc1` (stereo unspecified), the IC50 is reported as > 50 µM (inactive).

`COc1cc(C)cc2c1C(=O)c1c(cc(O)c(Cl)c1O)C2=O` showed an IC50 of 12.9 µM.

With `COc1ccc(NC(=O)Cn2c(=O)n(CCC(=O)NCc3ccccc3)c(=O)c3sccc32)cc1Cl` the IC50 was > 50 µM (inactive).

`CC(NC(=O)c1ccccc1)c1nc2ccccc2n1CC(=O)Nc1ccc(C#N)cc1` (stereo unspecified) was tested, and the IC50 was > 50 µM (inactive).

For `O=C(/C=C/c1c(F)cccc1Cl)N1CCc2ccccc2C1`, the IC50 was > 50 µM (inactive).

`CCOc1ccc(NC(=O)Cn2c(=O)n(CCC(=O)NCc3ccco3)c(=O)c3ccccc32)cc1` was tested, and the IC50 was > 50 µM (inactive).

In the case of `CCCCCCCCCC(CCCCCCCCCC(=O)O)O[C@H]1O[C@@H](COC(C)=O)[C@H](O)[C@@H](OC(=O)CC(=O)O)[C@H]1O` (stereo partly specified), the IC50 is reported as > 50 µM (inactive).

With `Cc1ccc(CNC(=O)CCCn2c(=O)c3sccc3n(CC(=O)OCc3ccccc3)c2=O)cc1` the IC50 was > 50 µM (inactive).

For `COc1ccc(/C=C/C(=O)Nc2cccc(S(=O)(=O)Nc3ccccc3Cl)c2)c(OC)c1`, the IC50 was > 50 µM (inactive).

With `O=C(Nc1ccccc1-c1nc2ccccc2[nH]1)c1sc2ccccc2c1Cl` the IC50 was 35.7 µM.

With `O=C(Cc1ccc(-n2c(=O)c3ccccc3n(CC(=O)Nc3ccc(Cl)cc3Cl)c2=O)cc1)NCc1ccco1` the IC50 was > 50 µM (inactive).

In the case of `CCC1OC(O)(C(C)C(O)C(C)C2OC(=O)/C(C)=C/C(C)=CC(C)C(O)C(C)C/C(C)=C/C=C/C2OC)CC(OC(=O)/C=C/C(=O)NC2=C(O)CCC2=O)C1C` (stereo unspecified), the IC50 is reported as 23.2 µM.

In the case of `O=C(COC(=O)c1ccc(NS(=O)(=O)c2ccc(F)c(F)c2)cc1)Nc1ccc(OCc2ccccc2)cc1`, the IC50 is reported as > 50 µM (inactive).

In the case of `COc1ccc(OC)c(NC(=O)c2sc(-c3ccccc3)nc2C)c1`, the IC50 is reported as > 50 µM (inactive).

`Cc1ccc(Nc2nc(NCC(=O)Nc3cc(C)ccc3C)nc(Nc3ccc(C)cc3)n2)cc1` was tested, and the IC50 was > 50 µM (inactive).

For `Cc1cccc(NC(=O)CSc2nc3c(cc2C#N)C(=O)CCC3)c1`, the IC50 was > 50 µM (inactive).

`Cc1ccc(C)c(NC(=O)Cn2cc(C(=O)C3CC3)c3ccccc32)c1` gave an IC50 of 40.6 µM.

For `CCCC(O)CCCCCCCc1cc(O)cc(O)c1C(=O)OC(CCC)CCCCCCCc1cc(O)cc(O)c1` (stereo unspecified), the IC50 was > 50 µM (inactive).

For `Oc1cccc2nc3c(O)cccc3nc12`, the IC50 was > 50 µM (inactive).

`FC(F)(F)c1ccc(Nc2nnnc3ccccc23)cc1` showed an IC50 of 20.5 µM.

With `COc1ccc(NC(=O)c2cc(-c3cccnc3)n[nH]2)cc1Cl` the IC50 was > 50 µM (inactive).

With `COc1ccc(NS(=O)(=O)c2cc(NC(=O)CC(=O)c3ccc([N+](=O)[O-])cc3)ccc2Cl)cc1` the IC50 was > 50 µM (inactive).

With `CC(=O)N1CCc2cc(S(=O)(=O)NC(Cc3ccccc3)C(=O)Nc3cccc(Cl)c3C)ccc21` (stereo unspecified) the IC50 was > 50 µM (inactive).

For `CN1C(=O)COc2cc(-c3noc(C(=O)NCc4ccc(F)cc4)n3)ccc21`, the IC50 was > 50 µM (inactive).

In the case of `O=C(Cn1c(=O)n(Cc2ccc(C(=O)NCc3ccco3)cc2)c(=O)c2ccccc21)Nc1ccc2c(c1)OCCO2`, the IC50 is reported as > 50 µM (inactive).

For `Cc1nc(-c2noc(-c3cccc(F)c3)n2)cn1CC(=O)Nc1ccccc1`, the IC50 was > 50 µM (inactive).

`COc1ccc(OC)c(-c2cn3ccn(-c4ccc(F)c(Cl)c4)c(=O)c3n2)c1` was tested, and the IC50 was > 50 µM (inactive).

`COc1ccc(Cl)cc1NC(=O)COC(=O)c1cc2ccccc2oc1=O` was tested, and the IC50 was > 50 µM (inactive).
